According to US8785499B2 (priority 2009, dated 2014):

How the values were obtained:
baNadD = baNadD (Bacillus anthracis, UniProt C3L5T6); assay: biochemical; type: biochemical
ecNadD = ecNadD (Escherichia coli (strain K12), UniProt P0A752); assay: biochemical; type: biochemical

Sequence of baNadD (C3L5T6 whole entry, looked up): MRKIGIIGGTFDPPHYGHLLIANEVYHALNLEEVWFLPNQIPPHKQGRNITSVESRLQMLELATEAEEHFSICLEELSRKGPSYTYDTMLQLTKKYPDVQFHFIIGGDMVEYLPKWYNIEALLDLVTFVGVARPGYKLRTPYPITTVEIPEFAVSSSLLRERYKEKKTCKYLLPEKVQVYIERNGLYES

SMILES | […]. anthracis (baNadD) [%] | […]. coli (ecNadD) [%] | other results
COc1cc(/C=N/c2ccc3[nH]c(=O)[nH]c3c2)ccc1OC(C)=O [compound 012] | 0 | 30 | –
N=C(N)NNC(=S)Nc1ccc(Cl)cc1 [compound 013] | 0 | 30 | –
Cc1cc(Nc2cccc(C(=O)O)c2)n2ncnc2n1 [compound 014] | 0 | 30 | –
O=C1Nc2ccccc2/C1=C/Nc1ccc(Br)cc1F [compound 015] | – | – | IC50 (baNadD; IC50 baNadD): 16 µM; inhibition at 50 µM (baNadD; read-out: INHIBITION (%) B. anthracis): 57%; IC50 (ecNadD; IC50 ecNadD): 30 µM; inhibition at 100 µM (ecNadD; read-out: INHIBITION (%) E. coli): 29%
O=C(O)c1ccc([N+](=O)[O-])cc1C(=O)Nc1ccc(Cl)cc1 [compound 016] | 75 | 29 | –
O=C(O)CCC(=O)NNC(=O)c1cccc(O)c1 [compound 017] | 0 | 27 | –
Nc1nnc(CCSc2cc(Cl)ccc2Cl)s1 [compound 018] | 0 | 27 | –
N#CC1=C(N)OC(c2cccs2)=C(C#N)C1c1cccs1 (stereo not shown) [compound 019] | 27 | 26 | –
O=C(Nc1ccc(NC(=O)c2cccs2)cc1)c1ccccc1 [compound 020] | 0 | 26 | –
NS(=O)(=O)c1ccc(N/C=C/C(=O)c2ccc(Cl)s2)cc1 [compound 021] | 79 | 24 | –
Nc1nc(-c2ccc(NC(=O)c3ccc(Cl)cc3)cc2)cs1 [compound 022] | 31 | 24 | –
Cc1c(NC(=O)CSS(=O)(=O)O)c(=O)n(-c2ccccc2)n1C [compound 023] | 34 | 24 | –
O=C(O)CCCCCN1C(=O)c2ccc(F)cc2C1=O [compound 024] | 0 | 23 | –
Cc1ccc(F)cc1NC(=O)CSCC(=O)O [compound 025] | 55 | 23 | –
O=c1[nH]c(SCc2nc3ccccc3[nH]2)nc2ccccc12 [compound 026] | 0 | 23 | –
O=C(O)c1cccc(NCN2C(=O)c3ccccc3C2=O)c1 [compound 027] | 0 | 23 | –
O=C(NNC(=O)c1ccco1)c1cccc(I)c1 [compound 028] | 7 | 23 | –
O=C(O)CCC(C(=O)O)N1C(=O)c2cc(Cl)c(Cl)cc2C1=O (stereo not shown) [compound 029] | 0 | 22 | –
O=C(O)c1ccc(Nc2nc(-c3ccc(Cl)cc3)cs2)cc1 [compound 030] | 28 | 22 | –

SMILES | […]. anthracis (baNadD) [%] | […]. coli (ecNadD) [%] | other results
O=C(O)c1nccnc1C(=O)Nc1ccc(Br)cc1 [compound 031] | 4 | 21 | –
COc1c(C)cc(Br)cc1C(=O)Nc1ccc(S(N)(=O)=O)cc1 [compound 032] | 8 | 21 | –
Nc1cc(NCCCCCC(=O)O)ccc1[N+](=O)[O-] [compound 034] | 1 | 21 | –
CC(=O)Nc1ccc(NS(=O)(=O)c2ccc(O)c(C(=O)O)c2)cc1 [compound 035] | 0 | 20 | –
O=C(Nc1ccccc1C(=O)O)c1ccc(Br)o1 [compound 036] | 0 | 20 | –
COc1cc(Br)cc(/C=C2/SC(=S)NC2=O)c1O [compound 037] | 0 | 20 | –
Oc1c(Cl)cc(Cl)cc1/C=N/c1nc[nH]n1 [compound 038] | 0 | 20 | –
Nc1nonc1C(=O)N/N=C/c1cc(Br)cc(Br)c1O [compound 040] | 20 | 19 | –
O=C(O)[C@@H]1CSC(c2ccc(Cl)cc2Cl)N1 (stereo partly shown) [compound 041] | 39 | 19 | –
Nc1ccc(NC(=O)c2cc(Cl)ccc2O)c(Cl)c1 [compound 043] | 2 | 18 | –
Oc1c(Br)cc(Cl)cc1/C=N/c1ccccn1 [compound 044] | 0 | 17 | –
CCOc1cc(/C=N/O)cc(I)c1O [compound 045] | 0 | 17 | –
Cc1ccc(OCC(=O)Nc2nnc[nH]2)c(Br)c1 [compound 046] | 71 | 17 | –
O=c1cc(O)c2sc(Nc3cccc(Cl)c3)nc2[nH]1 [compound 047] | 0 | 17 | –
NS(=O)(=O)c1ccc(CCNC(=O)c2cccc(Cl)c2)cc1 [compound 048] | 14 | 16 | –
O=C(/C=C/c1ccc2c(c1)OCO2)Nc1ncc([N+](=O)[O-])s1 [compound 049] | 10 | 16 | –
NS(=O)(=O)c1ccc(NC(=O)c2cc3cc(Br)ccc3oc2=O)cc1 [compound 050] | 38 | 16 | –
Nc1nonc1C(=O)NCCNS(=O)(=O)Cc1ccccc1 [compound 051] | 0 | 16 | –
